Reference: PMC9981942, “Pharmacokinetics and tissue distribution of Ramulus Mori (Sangzhi) alkaloids in rats and its effects on liver enzyme activity” (Frontiers in Pharmacology, 2023)
Where two headings read alike, the source gives them in different places.

Legend:
[1] = set-up: method as in Mackay et al., 2003; conditions: rats; ref Mackay et al., 2003; cited from earlier work
[2] = Tissue distribution after single oral SZ-A (40 mg/kg) in SD rats, plasma and 12 tissues; format: in vivo
Method: Twenty SD rats were randomly classified into four groups corresponding to four-time points (5 and 30 min, 4 and 12 h) (n = 20; 5 animals per time point) that received SZ-A solution (40 mg/kg) via oral administration. After the completion of dose administration, plasma and tissue samples (derived from the heart, liver, spleen, lung, kidney, aortic blood vessels, brown adipose tissue, subcutaneous adipose tissue, abdominal adipose tissue, muscle (thigh skeletal muscle), pancreas, and brain) were collected at predetermined time points. Twenty-eight ICR mice were randomly classified into four groups (n = 7 per group) corresponding to four-time points (5 and 30 min, 4 and 12 h) that received SZ-A solution (20 mg/kg) via oral administration. After the completion of dose administration, tissue samples (derived from the heart, liver, spleen, lung, kidney, aortic blood vessels, brown adipose tissue, abdominal adipose tissue, muscle (thigh skeletal muscle), pancreas, and brain) were collected at predetermined time points.
Collected tissue samples were washed with normal saline. The surface moisture was removed by blotting gently with filter paper, and the weight was recorded. After adding an appropriate amount of normal saline, these tissue samples were ground into homogenates using a cryogenic grinder (JX-CL, Shanghai Jingxin, Shanghai, China). The obtained homogenates were stored at −80°C until LC-MS/MS analysis.
Primary pharmacokinetic parameters, including Cmax, Tmax, area under the plasma concentration-time curve (AUC), t1/2, clearance rate, and the apparent volume of distribution, were calculated using DAS 3.2.8 (Bio Guider Co., Shanghai, China).

[3] = Sprague-Dawley, rat, Kidney, n=5
[4] = Sprague-Dawley, rat, Liver, n=5
[5] = Sprague-Dawley, rat, Pancreas, n=5
[6] = Sprague-Dawley, rat, Plasma, n=5
[7] = Sprague-Dawley, rat, muscle (thigh skeletal muscle), Muscle, n=5
[8] = rat, Abdominal adipose tissue, n=5
[9] = rat, Subcutaneous adipose tissue, n=5

## OC[C@H]1NC[C@@H](O)[C@@H]1O [DAB, 1,4-dideoxy-1,4-imino-D-arabinitol]
[1]
  form excreted: mainly excreted unchanged
[2]
  time of distribution peak in the aortic vessel: ≤ 5 min
  tissues with the highest concentrations: kidney, followed by the liver, aortic vessels, and brown adipose tissue
[2]; Aortic blood vessels, n=5
  AUC(0-t): 962 ± 354 ng·h/mL
[2]; Plasma, n=5
  CLz: 32.5 ± 4.33 mL/min/kg
  Vz: 1.61 ± 0.24 L/kg
[2]; Sprague-Dawley, rat, Brown adipose tissue, n=5
  half-life: 40.8 ± 0.6 min
[2]; Sprague-Dawley, rat, Brown adipose tissue, n=5, read-out: AUC(0-t)
  AUC(0-t): 716 ± 259 ng·h/mL
[2]; Sprague-Dawley, rat, Brown adipose tissue, n=5, read-out: Tmax
  Tmax: 30 min
[2]; [3]
  Cmax: 13300 ± 2890 ng/mL
  half-life: 165 ± 30.6 min
[2]; Sprague-Dawley, rat, Kidney, n=5, read-out: AUC(0-t)
  AUC(0-t): 37800 ± 7170 ng·h/mL
[2]; Sprague-Dawley, rat, Kidney, n=5, read-out: Tmax
  Tmax: 30 min
[2]; [4]
  Cmax: 2070 ± 396 ng/mL
  half-life: 229 ± 44.4 min
[2]; Sprague-Dawley, rat, Liver, n=5, read-out: AUC(0-t)
  AUC(0-t): 8120 ± 2150 ng·h/mL
[2]; Sprague-Dawley, rat, Liver, n=5, read-out: Tmax
  Tmax: 30 min
[2]; Sprague-Dawley, rat, Lung, n=5
  Cmax: 200 ± 22.3 ng/mL
  half-life: 31.8 ± 16.2 min
[2]; Sprague-Dawley, rat, Lung, n=5, read-out: Tmax
  Tmax: 13.2 ± 14.4 min
[2]; [5]
  Cmax: 122 ± 16.9 ng/mL
  half-life: 40.2 ± 2.4 min
[2]; Sprague-Dawley, rat, Pancreas, n=5, read-out: AUC(0-t)
  AUC(0-t): 854 ± 90 ng·h/mL
[2]; Sprague-Dawley, rat, Pancreas, n=5, read-out: Tmax
  Tmax: 114 ± 115 min
[2]; [6]
  Cmax: 973 ± 215 ng/mL
  half-life: 34.2 ± 1.2 min
[2]; Sprague-Dawley, rat, Plasma, n=5, read-out: AUC(0-t)
  AUC(0-t): 2360 ± 349 ng·h/mL
[2]; Sprague-Dawley, rat, Plasma, n=5, read-out: Tmax
  Tmax: 30 min
[2]; [7]
  Cmax: 188 ± 38.4 ng/mL
  half-life: 929 ± 700 min
[2]; Sprague-Dawley, rat, muscle (thigh skeletal muscle), Muscle, n=5, read-out: AUC(0-t)
  AUC(0-t): 1550 ± 212 ng·h/mL
[2]; Sprague-Dawley, rat, muscle (thigh skeletal muscle), Muscle, n=5, read-out: Tmax
  Tmax: 67.2 ± 97.2 min
[2]; [8]
  Cmax: 212 ± 58.2 ng/mL
  half-life: 43.8 ± 3.6 min
[2]; rat, Abdominal adipose tissue, n=5, read-out: AUC(0-t)
  AUC(0-t): 460 ± 146 ng·h/mL
[2]; rat, Abdominal adipose tissue, n=5, read-out: Tmax
  Tmax: 25.2 ± 11.4 min
[2]; rat, Aortic blood vessels, n=5
  Cmax: 756 ± 536 ng/mL
  half-life: 27.6 ± 14.4 min
[2]; rat, Aortic blood vessels, n=5, read-out: Tmax
  Tmax: 4.8 min
[2]; rat, Brown adipose tissue, n=5
  Cmax: 269 ± 82.8 ng/mL
[2]; rat, Heart, n=5
  Cmax: 114 ± 24.2 ng/mL
  half-life: 42.6 ± 0.6 min
[2]; rat, Heart, n=5, read-out: AUC(0-t)
  AUC(0-t): 469 ± 213 ng·h/mL
[2]; rat, Heart, n=5, read-out: Tmax
  Tmax: 72 ± 94.2 min
[2]; rat, Lung, n=5, read-out: AUC(0-t)
  AUC(0-t): 333 ± 108 ng·h/mL
[2]; rat, Spleen, n=5
  Cmax: 144 ± 39.9 ng/mL
  half-life: 45 ± 4.2 min
[2]; rat, Spleen, n=5, read-out: AUC(0-t)
  AUC(0-t): 294 ± 87 ng·h/mL
[2]; rat, Spleen, n=5, read-out: Tmax
  Tmax: 30 min
[2]; [9]
  Cmax: 112 ± 41.5 ng/mL
  half-life: 44.4 ± 1.8 min
[2]; rat, Subcutaneous adipose tissue, n=5, read-out: AUC(0-t)
  AUC(0-t): 232 ± 75 ng·h/mL
[2]; rat, Subcutaneous adipose tissue, n=5, read-out: Tmax
  Tmax: 30 min
[2]; rat, other tissues (not named), tissues not named separately for that alkaloid, read-out: time of peak concentration in other tissues (converted)
  Tmax: 30 min
[2]; up to 12 h
  accumulation in tissues: no long-term accumulation
